Assays:
ISC-enriched organoids [1] = test: Primary screen, 384-well 2.5-D organoid differentiation (ENR+CD, 6 days): carbachol-induced lysozyme secretion (LYZ.S); format: cell-based, murine; details: for Dose.FC.LYZ.S: ENR+CD, 6 days, FC vs plate median; for Dose.FC.LYZ.S (log 2 fold change, carbachol-induced lysozyme secretion): vs plate median; for Z.LYZ.S: standard z score; for Z.LYZ.S / SSMD.LYZ.S: primary screen; for SSMD.LYZ.S: strictly standardized mean difference
Source text: (§1) High-throughput screening.

ISC-enriched organoids [2] = test: Primary screen, 384-well 2.5-D organoid differentiation (ENR+CD, 6 days): basal lysozyme secretion (LYZ.NS); format: cell-based, murine; details: for Dose.FC.LYZ.NS: ENR+CD, 6 days, FC vs plate median; for Z.LYZ.NS: standard z score of FC; for Dose.FC.LYZ.NS (log 2 fold change, basal lysozyme secretion): vs plate median; for SSMD.LYZ.NS: strictly standardized mean difference, primary screen
Source text: as §1

ISC-enriched organoids [3] = test: Primary screen, 384-well 2.5-D organoid differentiation (ENR+CD, 6 days, Target Selective Inhibitor Library, vs whole-plate median): ATP (CellTiter-Glo 3D, CTG); details: for Dose.FC.CTG: ENR+CD, 6 days, FC vs plate median; for Dose.FC.CTG (log 2 fold change, ATP): vs plate median; for SSMD.CTG: strictly standardized mean difference
[4] = Dose 0.08 uM, standard z score of FC
[5] = Dose 0.40 uM, standard z score of FC
[6] = Dose 2.00 uM, standard z score of FC
[7] = Dose 10.00 uM, standard z score of FC
[8] = 1st of the 4 dose lines of the treatment (dose not given)
[9] = 2nd of the 4 dose lines of the treatment (dose not given)
[10] = 3rd of the 4 dose lines of the treatment (dose not given)
[11] = 4th of the 4 dose lines of the treatment (dose not given)

## CC1(COc2ccc3c(c2)ncn3-c2ccc3cccc(N4CCC(N)CC4)c3n2)COC1 [Crenolanib (CP-868596)]
ISC-enriched organoids [1]; Dose 0.08 uM
  Dose.FC.LYZ.S: 0.094 log 2 fold change
ISC-enriched organoids [1]; Dose 0.40 uM
  Dose.FC.LYZ.S: 0.043 log 2 fold change
ISC-enriched organoids [1]; Dose 2.00 uM
  Dose.FC.LYZ.S: 0.149 log 2 fold change
ISC-enriched organoids [1]; Dose 10.00 uM
  Dose.FC.LYZ.S: −0.292 log 2 fold change
ISC-enriched organoids [2]; Dose 0.08 uM
  Dose.FC.LYZ.NS: 0.121 log 2 fold change
  Z.LYZ.NS: 1.051
ISC-enriched organoids [2]; Dose 0.40 uM
  Dose.FC.LYZ.NS: 0.051 log 2 fold change
  Z.LYZ.NS: 0.441
ISC-enriched organoids [2]; Dose 2.00 uM
  Dose.FC.LYZ.NS: 0.122 log 2 fold change
  Z.LYZ.NS: 1.065
ISC-enriched organoids [2]; Dose 10.00 uM
  Dose.FC.LYZ.NS: −0.224 log 2 fold change
  Z.LYZ.NS: −1.951
ISC-enriched organoids [3]; Dose 0.08 uM
  Dose.FC.CTG: −0.069 log 2 fold change
ISC-enriched organoids [3]; [4]
  Z.CTG: −0.165
ISC-enriched organoids [3]; Dose 0.40 uM
  Dose.FC.CTG: −0.025 log 2 fold change
ISC-enriched organoids [3]; [5]
  Z.CTG: −0.059
ISC-enriched organoids [3]; Dose 2.00 uM
  Dose.FC.CTG: 0.053 log 2 fold change
ISC-enriched organoids [3]; [6]
  Z.CTG: 0.127
ISC-enriched organoids [3]; Dose 10.00 uM
  Dose.FC.CTG: −0.338 log 2 fold change
ISC-enriched organoids [3]; [7]
  Z.CTG: −0.808

## CN(C)CCCCC(=O)Nc1ccc(NC(=S)NC(=O)c2ccc(C(C)(C)C)cc2)cc1 [Tenovin-6]
ISC-enriched organoids [1]; dose 0.08 uM
  Dose.FC.LYZ.S (log 2 fold change, carbachol-induced lysozyme secretion): 0.028
ISC-enriched organoids [1]; dose 0.40 uM
  Dose.FC.LYZ.S (log 2 fold change, carbachol-induced lysozyme secretion): −0.109
ISC-enriched organoids [1]; dose 2.00 uM
  Dose.FC.LYZ.S (log 2 fold change, carbachol-induced lysozyme secretion): −0.328
ISC-enriched organoids [1]; dose 10.00 uM
  Dose.FC.LYZ.S (log 2 fold change, carbachol-induced lysozyme secretion): −0.344
ISC-enriched organoids [2]; dose 0.08 uM
  Z.LYZ.NS (standard z score): 1.050
  Dose.FC.LYZ.NS (log 2 fold change, basal lysozyme secretion): 0.121
ISC-enriched organoids [2]; dose 0.40 uM
  Z.LYZ.NS (standard z score): −0.463
  Dose.FC.LYZ.NS (log 2 fold change, basal lysozyme secretion): −0.053
ISC-enriched organoids [2]; dose 2.00 uM
  Z.LYZ.NS (standard z score): −1.686
  Dose.FC.LYZ.NS (log 2 fold change, basal lysozyme secretion): −0.194
ISC-enriched organoids [2]; dose 10.00 uM
  Z.LYZ.NS (standard z score): −1.671
  Dose.FC.LYZ.NS (log 2 fold change, basal lysozyme secretion): −0.192
ISC-enriched organoids [3]; dose 0.08 uM
  Z.CTG (standard z score): 0.165
  Dose.FC.CTG (log 2 fold change, ATP): 0.069
ISC-enriched organoids [3]; dose 0.40 uM
  Z.CTG (standard z score): −1.209
  Dose.FC.CTG (log 2 fold change, ATP): −0.506
ISC-enriched organoids [3]; dose 2.00 uM
  Z.CTG (standard z score): −2.654
  Dose.FC.CTG (log 2 fold change, ATP): −1.111
ISC-enriched organoids [3]; dose 10.00 uM
  Z.CTG (standard z score): −3.414
  Dose.FC.CTG (log 2 fold change, ATP): −1.429

## Cc1cc(Nc2ncc(Cl)c(Nc3ccccc3S(=O)(=O)C(C)C)n2)c(OC(C)C)cc1C1CCNCC1 [LDK378]
ISC-enriched organoids [1]; [8]
  Z.LYZ.S: 0.763
  SSMD.LYZ.S: 0.574
ISC-enriched organoids [1]; [9]
  Z.LYZ.S: −0.306
  SSMD.LYZ.S: −0.290
ISC-enriched organoids [1]; [10]
  Z.LYZ.S: −1.817
  SSMD.LYZ.S: −1.400
ISC-enriched organoids [1]; [11]
  Z.LYZ.S: −3.149
  SSMD.LYZ.S: −2.075
ISC-enriched organoids [2]; [8]
  SSMD.LYZ.NS: 0.246
ISC-enriched organoids [2]; [9]
  SSMD.LYZ.NS: −0.527
ISC-enriched organoids [2]; [10]
  SSMD.LYZ.NS: −1.818
ISC-enriched organoids [2]; [11]
  SSMD.LYZ.NS: −2.550
ISC-enriched organoids [3]; Dose 0.08 uM, primary screen, standard z score
  Z.CTG: 0.322
ISC-enriched organoids [3]; Dose 0.40 uM, primary screen, standard z score
  Z.CTG: 0.010
ISC-enriched organoids [3]; Dose 2.00 uM, primary screen, standard z score
  Z.CTG: −0.869
ISC-enriched organoids [3]; Dose 10.00 uM, primary screen, standard z score
  Z.CTG: −3.087
ISC-enriched organoids [3]; primary screen, 1st of the 4 dose lines of the treatment (dose not given)
  SSMD.CTG: 0.320
ISC-enriched organoids [3]; primary screen, 2nd of the 4 dose lines of the treatment (dose not given)
  SSMD.CTG: 0.013
ISC-enriched organoids [3]; primary screen, 3rd of the 4 dose lines of the treatment (dose not given)
  SSMD.CTG: −0.596
ISC-enriched organoids [3]; primary screen, 4th of the 4 dose lines of the treatment (dose not given)
  SSMD.CTG: −1.329

## CS(=O)(=O)N1CCN(Cc2cc3nc(-c4cccc5[nH]ncc45)nc(N4CCOCC4)c3s2)CC1 [GDC-0941]
ISC-enriched organoids [1]; Dose 0.08 uM
  Dose.FC.LYZ.S: 0.018 log 2 fold change
ISC-enriched organoids [1]; Dose 0.40 uM
  Dose.FC.LYZ.S: −0.076 log 2 fold change
ISC-enriched organoids [1]; Dose 2.00 uM
  Dose.FC.LYZ.S: −0.248 log 2 fold change
ISC-enriched organoids [1]; Dose 10.00 uM
  Dose.FC.LYZ.S: −0.257 log 2 fold change
ISC-enriched organoids [2]; Dose 0.08 uM
  Dose.FC.LYZ.NS: 0.008 log 2 fold change
  Z.LYZ.NS: 0.070
ISC-enriched organoids [2]; Dose 0.40 uM
  Dose.FC.LYZ.NS: −0.013 log 2 fold change
  Z.LYZ.NS: −0.112
ISC-enriched organoids [2]; Dose 2.00 uM
  Dose.FC.LYZ.NS: −0.128 log 2 fold change
  Z.LYZ.NS: −1.113
ISC-enriched organoids [2]; Dose 10.00 uM
  Dose.FC.LYZ.NS: −0.156 log 2 fold change
  Z.LYZ.NS: −1.362
ISC-enriched organoids [3]; Dose 0.08 uM
  Dose.FC.CTG: 0.283 log 2 fold change
ISC-enriched organoids [3]; [4]
  Z.CTG: 0.677
ISC-enriched organoids [3]; Dose 0.40 uM
  Dose.FC.CTG: 0.022 log 2 fold change
ISC-enriched organoids [3]; [5]
  Z.CTG: 0.053
ISC-enriched organoids [3]; Dose 2.00 uM
  Dose.FC.CTG: −0.197 log 2 fold change
ISC-enriched organoids [3]; [6]
  Z.CTG: −0.472
ISC-enriched organoids [3]; Dose 10.00 uM
  Dose.FC.CTG: −1.223 log 2 fold change
ISC-enriched organoids [3]; [7]
  Z.CTG: −2.921
